Test results: patent publication US8822517B2, “Arylosulfonamides for the treatment of CNS diseases” (Adamed SP. Z O.O., priority 2010, dated 2014)

How the values were obtained:
[1] = molecular target: T1, serotoninergic 5-HT7 receptor (Homo sapiens, UniProt P34969); assay: Cellular functional assay, serotoninergic 5-HT7 receptor (agonism/antagonism); assay type: cell-based; conditions: for activation at 1 µM: agonist effect, percent of control specific agonist response, compounds tested at 1×10^−6M, read-out: 5-HT7-ag [%]; for inhibition at 1 µM: read-out: 5-HT7-antag. [%]
Procedure: (§1) The compounds were tested at the concentration of 1×10^−6M.
(§2) In the Tables ag refers to agonism, and antag to antagonism).

sigma σ receptor = assay: Binding assay σ (non-selective), [3H]DTG, rat cerebral cortex; conditions: percent inhibition of control specific binding; compounds tested at 1×10^−6 M
In short: (§3)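 Binding read by scintillation counting. Non-specific component defined by excess unlabelled ligand and removed from total counts. Compounds at 1×10^−6 M.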

[2] = molecular target: T2, serotonine transporter (SERT) receptor (Homo sapiens, UniProt P31645); assay: Binding assay SERT (h), [3H]imipramine, CHO cells; conditions: read-out: SERT [%]
T2 construct: expressed in transfected cells; host or cells: CHO cells
In short: as §3

[3] = molecular target: T3, serotoninergic 5-HT2A receptor (Homo sapiens, UniProt P28223); assay: Cellular functional assay, serotoninergic 5-HT2A receptor (agonism/antagonism); assay type: cell-based
Procedure: […]. The compounds were tested at the concentration of 1×10^−6M.
Conditions and methodology (by reference to the literature) of cellular functional assays are given in Table 13 and the tests results for representative compounds are given in Table 14 (dopaminergic receptor D2), in Table 15 (dopaminergic receptor D3), in Table 16 (serotoninergic receptor 5-HT1A), in Table 17 (serotoninergic receptor 5-HT2A), in Table 18 (serotoninergic receptor 5-HT6), in Table 19 (serotoninergic receptor 5-HT7), in Table 20 (adrenergic α1 receptor), in Table 21 (adrenergic α2C receptor), in Table 22 (histaminergic H1 receptor) and in Table 23 (serotoninergic 5-HT2C receptor). In the Tables ag refers to agonism, and antag to antagonism).

[4] = molecular target: histaminergic H1 receptor (Homo sapiens, UniProt P35367); assay: Binding assay H1 (h), [3H]pyrilamine, HEK-293 cells; design: expressed in transfected cells; host or cells: HEK-293 cells; conditions: read-out: H1 [%]
In short: as §3

[5] = molecular target: T4, serotoninergic 5-HT1A receptor (Homo sapiens, UniProt P08908); assay: Binding assay 5-HT1A (h), [3H]8-OH-DPAT, HEK-293 cells; design: expressed in transfected cells; host or cells: HEK-293 cells; conditions: read-out: 5-HT1A
T4 sequence (P08908 1-422): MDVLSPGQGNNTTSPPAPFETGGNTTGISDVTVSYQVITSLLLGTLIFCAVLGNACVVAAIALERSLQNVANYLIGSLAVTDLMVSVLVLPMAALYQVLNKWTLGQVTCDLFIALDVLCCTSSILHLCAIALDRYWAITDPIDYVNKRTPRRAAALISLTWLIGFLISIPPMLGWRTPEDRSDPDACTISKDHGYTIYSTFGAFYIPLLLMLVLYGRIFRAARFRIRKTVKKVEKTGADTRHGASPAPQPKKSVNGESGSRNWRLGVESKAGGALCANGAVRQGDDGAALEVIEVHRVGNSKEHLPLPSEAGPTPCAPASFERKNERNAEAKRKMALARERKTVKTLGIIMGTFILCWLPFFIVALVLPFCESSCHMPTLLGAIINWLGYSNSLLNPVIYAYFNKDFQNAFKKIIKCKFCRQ
In short: as §3

[6] = molecular target: T5, serotoninergic receptor 5-HT2C (Homo sapiens, UniProt P28335); assay: Binding assay 5-HT2C (h), [3H]mesulergine, HEK-293 cells; conditions: read-out: 5-HT2C [%]
T5 construct: expressed in transfected cells; host or cells: HEK-293 cells
T5 sequence (P28335 33-458): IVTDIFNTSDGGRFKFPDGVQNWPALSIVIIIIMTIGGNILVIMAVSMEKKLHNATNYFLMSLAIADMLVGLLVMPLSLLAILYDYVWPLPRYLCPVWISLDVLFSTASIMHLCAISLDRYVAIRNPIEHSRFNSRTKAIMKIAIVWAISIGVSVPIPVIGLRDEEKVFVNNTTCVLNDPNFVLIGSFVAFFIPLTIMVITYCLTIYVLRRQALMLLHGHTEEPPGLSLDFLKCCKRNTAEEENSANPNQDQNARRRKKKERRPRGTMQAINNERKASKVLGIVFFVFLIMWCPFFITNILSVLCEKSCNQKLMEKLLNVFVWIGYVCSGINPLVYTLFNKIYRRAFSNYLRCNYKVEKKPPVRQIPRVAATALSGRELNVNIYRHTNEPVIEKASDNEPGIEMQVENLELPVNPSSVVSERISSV
In short: as §3

adrenergic α2C receptor = molecular target: T6, adrenergic α2C receptor (Homo sapiens, UniProt P18825); assay: Binding assay α2C (h), [3H]RX 821002, CHO cells; design: expressed in transfected cells; host or cells: CHO cells; conditions: read-out: α2C [%]
T6 sequence (P18825 1-462): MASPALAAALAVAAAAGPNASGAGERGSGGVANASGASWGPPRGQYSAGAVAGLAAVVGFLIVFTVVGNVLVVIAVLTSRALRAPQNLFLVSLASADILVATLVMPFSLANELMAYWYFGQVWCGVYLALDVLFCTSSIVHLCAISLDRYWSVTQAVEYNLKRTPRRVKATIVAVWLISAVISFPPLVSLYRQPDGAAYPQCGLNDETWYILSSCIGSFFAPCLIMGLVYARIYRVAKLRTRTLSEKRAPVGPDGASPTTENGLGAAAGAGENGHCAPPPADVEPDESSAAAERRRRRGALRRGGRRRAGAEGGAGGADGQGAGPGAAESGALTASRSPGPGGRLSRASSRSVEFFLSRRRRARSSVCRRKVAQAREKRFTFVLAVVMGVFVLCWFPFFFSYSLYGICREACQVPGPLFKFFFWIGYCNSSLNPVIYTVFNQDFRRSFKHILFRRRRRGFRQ
In short: as §3

dopaminergic D2 receptor [7] = molecular target: T7, dopaminergic D2 receptor (Homo sapiens, UniProt P14416); assay: Cellular functional assay, dopaminergic D2 receptor (agonism/antagonism); assay type: cell-based; conditions: HEK293
Procedure: as §1, §2
Target sequence in this assay (P14416 whole entry): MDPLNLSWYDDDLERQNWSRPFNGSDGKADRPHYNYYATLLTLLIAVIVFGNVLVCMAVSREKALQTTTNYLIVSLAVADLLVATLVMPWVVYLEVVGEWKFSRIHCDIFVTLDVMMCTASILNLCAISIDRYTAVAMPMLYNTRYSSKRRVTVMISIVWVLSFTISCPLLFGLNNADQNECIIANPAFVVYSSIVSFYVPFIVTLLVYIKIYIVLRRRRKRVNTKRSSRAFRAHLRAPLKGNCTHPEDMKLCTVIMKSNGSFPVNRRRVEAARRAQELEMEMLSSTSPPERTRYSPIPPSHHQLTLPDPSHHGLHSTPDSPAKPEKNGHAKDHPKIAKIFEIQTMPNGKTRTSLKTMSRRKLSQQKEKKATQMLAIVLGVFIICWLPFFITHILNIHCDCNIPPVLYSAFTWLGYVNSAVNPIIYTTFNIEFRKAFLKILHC

[8] = molecular target: T8, serotoninergic 5-HT6 receptor (Homo sapiens, UniProt P50406); assay: Cellular functional assay, serotoninergic 5-HT6 receptor (agonism/antagonism); assay type: cell-based; conditions: for activation at 1 µM: agonist effect, percent of control specific agonist response, compounds tested at 1×10^−6M, read-out: 5-HT6-ag [%]; for inhibition at 1 µM: read-out: 5-HT6-antag. [%]
Procedure: as §1, §2

[9] = molecular target: T8, serotoninergic 5-HT6 receptor; assay: Binding assay 5-HT6 (h), [3H]LSD, CHO cells; design: expressed in transfected cells; host or cells: CHO cells; conditions: read-out: 5-HT6
In short: as §3

[10] = molecular target: T1, serotoninergic 5-HT7 receptor; assay: Binding assay 5-HT7 (h), [3H]LSD, CHO cells; design: expressed in transfected cells; host or cells: CHO cells; conditions: read-out: 5-HT7
In short: as §3

[11] = molecular target: T3, serotoninergic 5-HT2A receptor; assay: Binding assay 5-HT2A (h), [3H]ketanserin, HEK-293 cells; design: expressed in transfected cells; host or cells: HEK-293 cells; conditions: read-out: 5-HT2A
In short: as §3

muscarinic M3 receptor = molecular target: T9, muscarinic M3 receptor (Homo sapiens, UniProt P20309); assay: Binding assay M3 (h), [3H]4-DAMP, CHO cells; conditions: read-out: M3 [%]
T9 construct: expressed in transfected cells; host or cells: CHO cells
In short: as §3

dopaminergic D3 receptor = dopaminergic D3 receptor (Homo sapiens, UniProt P35462); assay: Binding assay D3 (h), [3H]methyl-spiperone, CHO cells; design: expressed in transfected cells; host or cells: CHO cells; conditions: read-out: D3 [%]
In short: as §3

adrenergic α1 receptor = assay: Binding assay α1 (non-selective), [3H]prazosin, rat cerebral cortex; conditions: percent inhibition of control specific binding; compounds tested at 1×10^−6 M
In short: as §3

dopaminergic D2 receptor [12] = molecular target: T7, dopaminergic D2 receptor; assay: Binding assay D2S (h), [3H]methyl-spiperone, HEK-293 cells; design: expressed in transfected cells; host or cells: HEK-293 cells; conditions: read-out: D2 [%]
In short: as §3
Target sequence in this assay (P14416 1-414 isoform P14416-2): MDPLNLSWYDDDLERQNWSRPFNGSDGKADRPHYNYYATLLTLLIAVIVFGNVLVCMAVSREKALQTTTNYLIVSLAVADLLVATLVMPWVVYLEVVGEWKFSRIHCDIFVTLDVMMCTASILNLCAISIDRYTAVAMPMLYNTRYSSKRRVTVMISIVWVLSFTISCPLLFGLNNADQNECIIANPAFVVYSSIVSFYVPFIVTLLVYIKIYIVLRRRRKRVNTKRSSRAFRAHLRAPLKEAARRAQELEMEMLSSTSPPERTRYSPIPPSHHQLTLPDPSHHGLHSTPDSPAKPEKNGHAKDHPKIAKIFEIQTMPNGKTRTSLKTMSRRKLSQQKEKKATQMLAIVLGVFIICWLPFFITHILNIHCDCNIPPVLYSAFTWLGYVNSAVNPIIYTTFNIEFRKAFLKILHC

T1 sequence (P34969 whole entry): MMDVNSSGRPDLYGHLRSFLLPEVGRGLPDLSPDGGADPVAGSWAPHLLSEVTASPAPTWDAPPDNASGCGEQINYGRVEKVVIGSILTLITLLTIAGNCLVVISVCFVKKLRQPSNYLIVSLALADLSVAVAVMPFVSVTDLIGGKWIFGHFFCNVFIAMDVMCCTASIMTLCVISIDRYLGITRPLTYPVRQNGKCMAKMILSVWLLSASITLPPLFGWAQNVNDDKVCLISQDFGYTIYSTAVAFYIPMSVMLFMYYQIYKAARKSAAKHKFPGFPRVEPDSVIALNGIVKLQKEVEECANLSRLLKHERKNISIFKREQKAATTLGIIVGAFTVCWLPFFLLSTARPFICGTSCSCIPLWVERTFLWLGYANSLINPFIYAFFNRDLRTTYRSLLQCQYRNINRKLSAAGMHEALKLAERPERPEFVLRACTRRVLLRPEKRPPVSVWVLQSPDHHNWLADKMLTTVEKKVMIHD
T9 sequence (P20309 whole entry): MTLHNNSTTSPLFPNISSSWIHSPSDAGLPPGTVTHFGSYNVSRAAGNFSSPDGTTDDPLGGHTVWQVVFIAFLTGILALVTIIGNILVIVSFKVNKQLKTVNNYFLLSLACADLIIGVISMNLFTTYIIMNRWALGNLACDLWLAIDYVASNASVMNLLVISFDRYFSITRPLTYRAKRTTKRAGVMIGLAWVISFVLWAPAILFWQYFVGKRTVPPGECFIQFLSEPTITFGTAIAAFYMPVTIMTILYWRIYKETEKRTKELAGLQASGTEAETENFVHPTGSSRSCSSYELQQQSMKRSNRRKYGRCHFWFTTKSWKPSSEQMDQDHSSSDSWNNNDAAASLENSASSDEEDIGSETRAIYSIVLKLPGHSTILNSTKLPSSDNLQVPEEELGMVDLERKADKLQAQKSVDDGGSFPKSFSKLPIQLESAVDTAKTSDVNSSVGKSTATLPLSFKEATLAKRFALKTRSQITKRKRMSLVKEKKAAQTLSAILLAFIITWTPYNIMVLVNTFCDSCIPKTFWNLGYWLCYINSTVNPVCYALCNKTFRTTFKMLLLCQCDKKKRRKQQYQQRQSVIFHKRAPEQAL
dopaminergic D3 receptor, sequence (P35462 whole entry): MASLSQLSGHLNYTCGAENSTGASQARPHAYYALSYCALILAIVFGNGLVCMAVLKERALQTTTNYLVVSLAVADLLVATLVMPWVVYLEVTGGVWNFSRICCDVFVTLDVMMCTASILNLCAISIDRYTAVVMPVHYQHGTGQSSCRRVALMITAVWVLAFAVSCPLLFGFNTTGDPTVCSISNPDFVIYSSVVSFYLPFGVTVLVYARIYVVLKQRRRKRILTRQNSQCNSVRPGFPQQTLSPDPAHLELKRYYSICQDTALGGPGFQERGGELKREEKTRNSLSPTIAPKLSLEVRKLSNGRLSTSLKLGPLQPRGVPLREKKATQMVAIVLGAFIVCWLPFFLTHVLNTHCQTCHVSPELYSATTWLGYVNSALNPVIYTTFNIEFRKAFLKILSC
T2 sequence (P31645 whole entry): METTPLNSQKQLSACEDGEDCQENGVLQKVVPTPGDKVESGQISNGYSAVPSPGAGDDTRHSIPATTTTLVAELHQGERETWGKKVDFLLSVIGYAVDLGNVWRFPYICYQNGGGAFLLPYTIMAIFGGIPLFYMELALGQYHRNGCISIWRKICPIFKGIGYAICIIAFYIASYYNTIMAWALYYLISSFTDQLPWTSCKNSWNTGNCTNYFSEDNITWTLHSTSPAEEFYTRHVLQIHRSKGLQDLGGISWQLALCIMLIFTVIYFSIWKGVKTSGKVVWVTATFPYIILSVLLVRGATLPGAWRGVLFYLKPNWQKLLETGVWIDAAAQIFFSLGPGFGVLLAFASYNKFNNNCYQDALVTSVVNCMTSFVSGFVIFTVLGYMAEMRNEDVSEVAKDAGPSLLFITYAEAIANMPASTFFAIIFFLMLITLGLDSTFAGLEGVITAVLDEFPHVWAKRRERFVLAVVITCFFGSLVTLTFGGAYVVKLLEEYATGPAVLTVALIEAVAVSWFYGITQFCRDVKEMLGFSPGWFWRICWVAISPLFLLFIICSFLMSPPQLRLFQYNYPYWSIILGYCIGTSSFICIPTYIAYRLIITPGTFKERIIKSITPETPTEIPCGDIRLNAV
T8 sequence (P50406 whole entry): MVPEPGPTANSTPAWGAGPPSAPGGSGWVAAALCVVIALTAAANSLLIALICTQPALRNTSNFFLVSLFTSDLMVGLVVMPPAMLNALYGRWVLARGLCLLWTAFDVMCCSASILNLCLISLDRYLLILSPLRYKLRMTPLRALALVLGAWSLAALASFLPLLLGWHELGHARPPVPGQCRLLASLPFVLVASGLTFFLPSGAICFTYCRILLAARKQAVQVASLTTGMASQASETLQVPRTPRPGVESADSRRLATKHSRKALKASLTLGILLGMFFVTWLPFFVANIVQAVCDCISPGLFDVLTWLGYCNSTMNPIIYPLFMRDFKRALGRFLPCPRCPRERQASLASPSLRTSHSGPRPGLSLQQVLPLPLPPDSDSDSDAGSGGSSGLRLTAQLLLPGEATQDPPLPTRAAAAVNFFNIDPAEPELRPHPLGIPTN
histaminergic H1 receptor, sequence (P35367 whole entry): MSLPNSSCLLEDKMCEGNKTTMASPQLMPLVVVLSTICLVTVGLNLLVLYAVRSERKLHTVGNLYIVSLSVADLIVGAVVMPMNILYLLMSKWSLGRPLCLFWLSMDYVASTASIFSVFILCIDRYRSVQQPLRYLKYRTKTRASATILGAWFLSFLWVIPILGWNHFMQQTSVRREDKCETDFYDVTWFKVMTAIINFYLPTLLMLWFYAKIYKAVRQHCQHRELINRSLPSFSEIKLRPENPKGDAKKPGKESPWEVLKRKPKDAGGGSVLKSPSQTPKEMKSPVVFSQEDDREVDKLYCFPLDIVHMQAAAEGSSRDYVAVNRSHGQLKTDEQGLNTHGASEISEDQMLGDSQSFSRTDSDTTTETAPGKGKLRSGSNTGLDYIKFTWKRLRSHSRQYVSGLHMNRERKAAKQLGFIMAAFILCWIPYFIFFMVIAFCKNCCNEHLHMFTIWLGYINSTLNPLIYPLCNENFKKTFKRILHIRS
T3 sequence (P28223 whole entry): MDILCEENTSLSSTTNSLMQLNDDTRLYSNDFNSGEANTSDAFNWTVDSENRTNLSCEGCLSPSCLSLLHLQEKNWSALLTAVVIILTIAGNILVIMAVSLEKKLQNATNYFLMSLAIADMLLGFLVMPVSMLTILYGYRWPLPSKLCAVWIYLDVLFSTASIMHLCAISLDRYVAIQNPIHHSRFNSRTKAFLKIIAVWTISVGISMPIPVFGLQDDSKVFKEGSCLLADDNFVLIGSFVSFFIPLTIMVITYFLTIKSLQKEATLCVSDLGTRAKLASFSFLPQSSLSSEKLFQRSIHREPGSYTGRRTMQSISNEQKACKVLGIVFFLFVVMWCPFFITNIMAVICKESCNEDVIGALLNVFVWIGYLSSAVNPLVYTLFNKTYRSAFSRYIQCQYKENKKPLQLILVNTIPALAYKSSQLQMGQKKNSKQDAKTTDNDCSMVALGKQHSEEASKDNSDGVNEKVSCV

| SMILES | activation at 1 µM [1] | inhibition at 1 µM [1] | σ [%] (sigma σ receptor) | inhibition at 1 µM [2] | inhibition at 1 µM [4] | inhibition at 1 µM [5] | inhibition at 1 µM [6] | inhibition at 1 µM (adrenergic α2C receptor) | activation at 1 µM [8] | inhibition at 1 µM [8] | inhibition at 1 µM [9] | inhibition at 1 µM [10] | inhibition at 1 µM [11] | inhibition at 1 µM (muscarinic M3 receptor) | inhibition at 1 µM (dopaminergic D3 receptor) | α1 [%] (adrenergic α1 receptor) | inhibition at 1 µM (dopaminergic D2 receptor [12]) | other results |
| --- | --- | --- | --- | --- | --- | --- | --- | --- | --- | --- | --- | --- | --- | --- | --- | --- | --- | --- |
| Cc1cccc(S(=O)(=O)NCCCCN2CCN(c3noc4ccccc34)CC2)c1 [Compound 15, N-(4-(4-(1,2-Benzoxazol-3-yl)piperazin-1-yl)butyl)-3-methylbenzenesulphonamide] | 0% | 96% | 47% | -3% | 84% | 86% | 23% | 98% | 2% | 21% | 71% | 100% | 99% | -9% | 88% | 102% | 90% | activation at 1 µM ([3]; read-out: 5-HT2A -ag [%]): -1%; inhibition at 1 µM ([3]; read-out: 5-HT2A -antag [%]): 100%; activation at 1 µM (dopaminergic D2 receptor [7]; agonist effect, percent of control specific agonist response (3 μM dopamine for control), 1×10^−6 M, D2S (h), HEK-293 cells, read-out: D2-ag [%]): 2%; inhibition at 1 µM (dopaminergic D2 receptor [7]; read-out: D2-antag. [%]): 88% |
| O=S(=O)(NCCCN1CCC(c2noc3cc(F)ccc23)CC1)c1ccc2ccccc2c1 [Compound 21, N-[3-[4-(6-Fluoro-1,2-benzoxazol-3-yl)piperidin-1-yl]propyl]naphthalene-2-sulphonamide] | 0% | 98% | 82% | 46% | 90% | 77% | 87% | 98% | -2% | 39% | 93% | 99% | 100% | 2% | 97% | 97% | 99% |  |
| O=S(=O)(NCCN1CCC(c2noc3cc(F)ccc23)CC1)c1cccc2ccccc12 [Compound 23, N-[2-[4-(6-Fluoro-1,2-benzoxazol-3-yl)piperidin-1-yl]ethyl]naphthalene-1-sulphonamide] | 0% | 88% | 82% | 68% | 67% | 85% | 44% | 99% | 0% | 1% | 69% | 96% | 100% | -2% | 93% | 97% | 97% |  |
